Laboratory results as given in patent publication US12100151B2, “Droplet imaging pipeline” (Xilis, Inc., priority 2022, dated 2024).
“Also recorded” adds a separate entry of the source.

Legend:
sarcoma cancer MOS [1] = test: live/dead cell dye imaging assay on sarcoma cancer MOS; format: cell-based; conditions: sarcoma MOS treated on Day 7 after establishment; FIG. 5F bottom panel
Text: (§1) The imaging-based MOS drug assay allowed further delineating MOS 3D structures from individual stromal cells by overcoming fundamental limits of bulk assays, e.g., cell number, well-to-well variation, heterogeneity, and signal-to-noise ratio.

sarcoma cancer MOS [2] = test: CTG luminescent cell viability assay on sarcoma cancer MOS; format: cell-based; conditions: sarcoma MOS treated on Day 7 after establishment; FIG. 5F top panel
Protocol: To measure cell viability, we used the CTG luminescent cell viability assay. CellTiter-Glo 3-D reagent (Promega, catalog no. G9681) was added in a 1:1 ratio with the initial well volume ([…], of CTG reagent 96-well plates and 384-well plates, respectively). The plates were placed on a shaker for 30 min. We measured luminescence by using a plate reader for each well.
Cell viability was assessed using both metabolic and imaging parameters. For the metabolic assay, Day 0 brightfield images were used to normalize CTG measurements for each well. Total surface areas (tSA) outputted from the machine learning model were used for normalizing the plating variations. The measured CTG value of each well was then divided by these surface area ratios to determine the adjusted CTG values. These adjusted CTG values were used to generate drug response curves, e.g., viability curves for each drug condition.
as §1

CRC #6 = test: imaging-based MOS drug assay (MOS size, live/dead CAM/EtH dyes) on CRC #6; format: cell-based; conditions: CRC #6 model
Text: (§2) The plates were scanned using the Celigo imaging cytometer and its software. We collected the brightfield images on the day (day 0) of the drug treatment and on the day right before performing the CellTiter-Glo (CTG) assay. Upon inserting the plate, images were set to be acquired on brightfield, green, and red fluorescence channels. The brightfield channel was used to focus the device and ensure the MOS boundaries were crisp. The green (live cell) fluorescence channel exposure time was then adjusted to ensure pixel intensity was below 200 across the control triplicate wells to avoid overexposure. This process was repeated for the red (dead cell) fluorescence channel in the positive control, killing condition triplicate wells. After scanning the plate, the stitched images of each well were exported in tiff format for the downstream imaging analysis.
(§3) We performed the live and dead cell staining on the same day prior to the CTG assay. For 96 well plates, a working dye solution of 20 μM Ethidium Homodimer-2 (Thermo Fisher, Cat. No. E3599) and 5 μM Calcein AM (Thermo Fisher, catalog No. C3100MP) was prepared by adding 1 mM Calcein AM, 1 mM Ethidium Homodimer-2, and CRC media in a 1:8:191 ratio. For 384-well plates, the working dye solution of 10 μM Ethidium Homodimer-2 and 2.5 μM Calcein AM was prepared by adding 1 mM Calcein AM, 1 mM Ethidium Homodimer-2, and colorectal cancer (CRC) media in a 1:8:391 ratio. After the solution was prepared, 11 μL and 10 μL of dye solution were added to each well on the 96-well and 384-wells plates, respectively, to yield a final well concentration of 2 μM Ethidium Homodimer-2 and 0.5 μM Calcein AM. The plates were then incubated for 45 min at 37° C.
(§4) Therefore, in studies involving the ratio of live-cell stain to dead-cell stain, we increased the predicted object mask to capture all the dead-stain fluorescence signal. The size increase was performed using one iteration of the dilate algorithm in OpenCV with a kernel size of 10×10. Any other MOSs detected by the machine learning model that overlap with this expanded region were removed before the integrated fluorescence was computed.
For the live and dead cell dyes-based imaging assay, the integrated live cell dye (Calcein AM) and dead cell dye (Eth) signals for each segmented object were determined. […]
(§5) To further increase the resolution and power of MOS drug assay pipeline, we developed an orthogonal approach by spiking a combination of live-cell (Calcein AM, CAM) and dead-cell (Ethidium Homodimer II, EtH) dyes (FIG. 5A; scale bar of 200 μm) into the drug assay plates prior to performing the CTG assay. We were able to quantitatively measure the integrated intensities of the CAM and EtH dyes in addition to MOS sizes.

CRC #5 = CRC #5 model; for sizes of CRC #5 MOS: FIG. 5A top panel; for drug response curve by median CAM/EtH dye ratios as compared to CTG based assay: FIG. 5C; for cytostatic vs. cytotoxic drug effect: from size, CAM/EtH ratio and CTG
Text: as §2, §3, §4
For the live and dead cell dyes-based imaging assay, the integrated live cell dye (Calcein AM) and dead cell dye (Eth) signals for each segmented object were determined. To assess drug response at individual MOS level, the integrated intensities, or the ratios of Calcein AM/EtH, were shown on the scatter plot or histogram. The correlation of dose-dependent drug response with the median ratios of the integrated live/dead cell dye intensities from each well were computed and plotted.
as §5

SMILES | drug response by median values of live/dead cell ratios (sarcoma cancer MOS [1]) | bulk CTG readouts (raw CTG or adjusted CTG) drug response curves (sarcoma cancer MOS [2]) | sensitivity of the model to the drug (CRC #6) | sizes of CRC #6 MOS (CRC #6) | sizes of CRC #5 MOS (CRC #5) | drug response curve by median CAM/EtH dye ratios as compared to CTG based assay (CRC #5) | cytostatic vs. cytotoxic drug effect (CRC #5) | drug resistant clones identified (CRC #6; FIG. 5A and FIG. 5D) | drug response curve by median CAM/EtH dye ratios as compared to CTG based assay (CRC #6; FIG. 5C) | ratios of CAM/EtH dye integrated intensities (CRC #5; live-cell Calcein AM / dead-cell Ethidium Homodimer II)
CC(=O)O[C@@]12CO[C@@H]1C[C@H](O)[C@@]1(C)C(=O)[C@H](O)C3=C(C)[C@@H](OC(=O)[C@H](O)[C@@H](NC(=O)OC(C)(C)C)c4ccccc4)C[C@@](O)([C@@H](OC(=O)c4ccccc4)[C@H]21)C3(C)C [Docetaxel] | clear dose-dependent drug response | not able to provide any meaningful dose-dependent drug response curves | – | – | – | – | – | – | – | –
C#Cc1cccc(Nc2ncnc3cc(OCCOC)c(OCCOC)cc23)c1 [Erlotinib] | – | – | resistant to EGFR inhibition | no obvious decrease | decreased | divergence between CTG plot and CAM/EtH ratio plot | cytostatic effect; also recorded: cytostatic but not the cytotoxic effect | – | – | –
Nc1ccn([C@@H]2O[C@H](CO)[C@@H](O)C2(F)F)c(=O)n1 [Gemcitabine] | less sensitive response | not able to provide any meaningful dose-dependent drug response curves | – | – | – | – | – | – | – | –
CCc1c2c(nc3ccc(O)cc13)-c1cc3c(c(=O)n1C2)COC(=O)[C@]3(O)CC [SN38] | – | – | – | – | decreased | comparable dose-dependent drug responses | cytotoxic effect | identified the drug resistant clones | comparable dose-dependent drug responses | only decreased in the wells treated with SN38
